Source: patent EP0071535B1, “(4-(2 and/or 3-Thienylacetamido)-phenoxy)-hydroxyaminopropanes, their preparation, their therapeutic use and intermediates” (CARPIBEM (CENTRE D'ACTIVITE ET DE RECHERCHE PHARMACEUTIQUE …, priority 1981, dated 1983)

Assays:
[1] = test system: effets β1 (augmentation de la force contractile du myocarde) de l'isoprénaline; experiment: β-blocking activity: inhibition of the β1 effects of intravenous isoprenaline in anaesthetised dogs; type: in vivo, chiens; conditions: dog; for inhibition at 0.001 mg/kg / inhibition at 0.003 mg/kg / inhibition at 0.01 mg/kg / inhibition at 0.1 mg/kg: Canis lupus familiaris, iv, inhibition given with negative sign, read-out: % d'inhibition des effets β1^(+) de l'Isoprénaline; for inhibition at 0.001 mg/kg: 0,001 mg/kg I.V.; for inhibition at 0.003 mg/kg: 0,003 mg/kg I.V.; for inhibition at 0.01 mg/kg: 0,010 mg/kg I.V.; for inhibition at 0.1 mg/kg: 0,100 mg/kg I.V.
Experimental: (§1) Des chiens tout-venants mâles ou femelles sont anesthésiés au mébubarbital sodique (30 mg/kg I.V.) et ventilés artificiellement par une pompe Pesty RPP. Ils sont supplémentés en oxygène.
(§2) On mesure: • - la pression carotidienne systolique et diastolique • - la force contractile du myocarde.
(§3) Les signaux sont amplifiés et enregistrés sur Dynograph Beckman.
(§4) L'activité β bloquante adrénergique a été étudiée vis-à-vis des effets β1 (augmentation de la force contractile du myocarde) et des effets P2 (diminution de la pression artérielle disstolique) de l'isoprénaline administrée par voie intraveineuse.
(§5) On calcule le pourcentsge d'inhibition des effets β1 et des effets β2 de l'isoprénaline en fonction des doses (mg.kg I.V.) des différents exemples.
(§6) Les exemples sont injectés dans le veine saphène aux doses (exprimées en base) de: 0,0003 0,001 0,003 0,01 0,1 1,0 et 4,0 ou 8,0 mg.kg-1.

[2] = test system: effets β2 (diminution de la pression artérielle diastolique) de l'isoprénaline; experiment: β-blocking activity: inhibition of the β2 effects of intravenous isoprenaline in anaesthetised dogs; type: in vivo, chiens; conditions: dog; for inhibition at 0.001 mg/kg / inhibition at 0.003 mg/kg / inhibition at 0.01 mg/kg / inhibition at 0.1 mg/kg: Canis lupus familiaris, iv, inhibition given with negative sign, read-out: % d'inhibition des effets β2^⊕ de l'Isoprénaline; for inhibition at 0.001 mg/kg: 0,001 mg/kg I.V.; for inhibition at 0.003 mg/kg: 0,003 mg/kg I.V.; for inhibition at 0.01 mg/kg: 0,010 mg/kg I.V.; for inhibition at 0.1 mg/kg: 0,100 mg/kg I.V.
Experimental: as §1, §2, §3, §4, §5, §6

[3] = test system: rat génétiquement hypertendu: Rat OKAMOTO; experiment: Antihypertensive activity in spontaneously hypertensive rats (tail-cuff systolic pressure and heart rate after oral dosing); type: in vivo
Experimental: Des rats mâles âgés de 13 à 21 semaines présentant une hypertension spontanée génétiquement transmissible (souche OKAMOTO provenance IFFA CREDO) sont placés dans une enceinte thermostatée à 38°C. Les rats sont laissés en situation libre. La pression artérielle est mesurée par un sphygmomanomètre Narco Biosystem. Un manchon est placé à la base de la queue et un détecteur enregistre le pouls en aval du manchon. Celui-ci est gonflé jusqu'à suppression du pouls il est ensuite progressivement dégonflé. La pression mesurée à la reprise des battements cardiaques est la pression artérielle systolique. On calcule la fréquence cardiaque à partir de l'enregistrement du pouls artériel. Les produits à étudiar sont mis en suspension el administrés par voie orale sous un volume de 1 ml pour 100 g de poids corporel. Les mesures sont répétées à intervalles réguliers.
Les valeurs moyennes avant traitement pour les différents lots de rats sont pour la pression artérielle systolique de 190 à 200 mmHg et pour la fréquence cardiaque de 305 à 350 battements par minute.
Le tableau III ci-après donne la moyenne des variations de la pression systolique (mmHg) de la fréquence cardisque (battements/minute) et les écarts type à la moyenne obtenus 1 heure 3 heures et 5 heures après administration orale.

[4] = 0.1 mg.kg^-1 voie intraveineuse
[5] = 1.0 mg.kg^-1 voie intraveineuse
[6] = 8.0 mg.kg^-1 voie intraveineuse

SMILES | inhibition at 0.001 mg/kg [1] [%] | inhibition at 0.003 mg/kg [1] [%] | inhibition at 0.01 mg/kg [1] [%] | inhibition at 0.1 mg/kg [1] [%] | inhibition at 0.001 mg/kg [2] [%] | inhibition at 0.003 mg/kg [2] [%] | inhibition at 0.01 mg/kg [2] [%] | inhibition at 0.1 mg/kg [2] [%] | Fréquence cardiaque Δ (battements/min) T+1 heure m (sm) ([3]; 64 mg.kg^-1 V.O) | Pression systolique Δ (mmHg) T+1 heure m (sm) ([3]; 64 mg.kg^-1 V.O) | Fréquence cardiaque Δ (battements/min) T+3 heures m (sm) ([3]; 64 mg.kg^-1 V.O) | Pression systolique Δ (mmHg) T+3 heures m (sm) ([3]; 64 mg.kg^-1 V.O) | Fréquence cardiaque Δ (battements/min) T+5 heures m (sm) ([3]; 64 mg.kg^-1 V.O) | Pression systolique Δ (mmHg) T+5 heures m (sm) ([3]; 64 mg.kg^-1 V.O) | Fréquence cardiaque Δ (battements/min) T+1 heure m (sm) ([3]; 128 mg.kg^-1 V.O) | Pression systolique Δ (mmHg) T+1 heure m (sm) ([3]; 128 mg.kg^-1 V.O) | Fréquence cardiaque Δ (battements/min) T+3 heures m (sm) ([3]; 128 mg.kg^-1 V.O) | Pression systolique Δ (mmHg) T+3 heures m (sm) ([3]; 128 mg.kg^-1 V.O) | Fréquence cardiaque Δ (battements/min) T+5 heures m (sm) ([3]; 128 mg.kg^-1 V.O) | Pression systolique Δ (mmHg) T+5 heures m (sm) ([3]; 128 mg.kg^-1 V.O) | also measured
C=CCc1cc(NC(=O)Cc2cccs2)ccc1OCC(O)CNC(C)(C)C (stereo not shown) [exemple 11, 1-[2-allyl 4-(2-thiénylacétamido)phénoxy] 3-ter-butylamino 2-propanol] | -11 | -37 | -70 | -100 | 0 | 0 | 0 | -17 | +7 (8) battements/min | -54 (1) mmHg | +10 (9) battements/min | -49 (10) mmHg | 0 (9) battements/min | -44 (11) mmHg |  |  |  |  |  |  | Pourcentages d'inhibition des effets β1 de l'Isoprénaline ([1]; 0.001 mg.kg^-1 voie intraveineuse): 11%; Pourcentages d'inhibition des effets β1 de l'Isoprénaline ([1]; 0.003 mg.kg^-1 voie intraveineuse): 37%; Pourcentages d'inhibition des effets β1 de l'Isoprénaline ([1]; 0.01 mg.kg^-1 voie intraveineuse): 70%; Pourcentages d'inhibition des effets β1 de l'Isoprénaline [1, 4]: 100%; Pourcentages d'inhibition des effets β1 de l'Isoprénaline [1, 5]: 100%; Pourcentages d'inhibition des effets β1 de l'Isoprénaline [1, 6]: 100%; Pourcentages d'inhibition des effets β2 de l'Isoprénaline [2, 4]: 17%; Pourcentages d'inhibition des effets β2 de l'Isoprénaline [2, 5]: 77%; Pourcentages d'inhibition des effets β2 de l'Isoprénaline [2, 6]: 100%
C=CCc1cc(NC(=O)Cc2ccsc2)ccc1OCC(O)CNC(C)(C)C (stereo not shown) [exemple 38, 1-[2-allyl 4-(3-thiénylacétamido)phénoxy] 3-terbutylamino 2-propanol] | -5 | -35 | -73 | -100 | -4 | -4 | -6 | -27 | +39 (9) battements/min | -31 (5) mmHg | +21 (9) battements/min | -26 (5) mmHg | +29 (13) battements/min | -34 (7) mmHg |  |  |  |  |  |  | 
CC(C)(C)NCC(O)COc1ccc(NC(=O)Cc2cccs2)cc1Br (stereo not shown) [exemple 39, 1-[2-bromo 4-(2-thiénylacétamido)phénoxy] 3-terbutylamino 2-propanol] | -11 | -65 | -89 | -100 | 0 | 0 | -5 | -49 |  |  |  |  |  |  | +47 (15) battements/min | -33 (9) mmHg | +56 (4) battements/min | -34 (11) mmHg | +47 (4) battements/min | -43 (9) mmHg | 
CC(C)NCC(O)COc1ccc(NC(=O)Cc2cccs2)cc1Br (stereo not shown) [exemple 40, 1-[2-bromo 4-(2-thiénylacétamido)phénoxy] 3-isopropylamino 2-propanol] | 0 | -19 | -53 | -93 | 0 | 0 | 0 | -4 |  |  |  |  |  |  | +23 (23) battements/min | -58 (10) mmHg | +20 (14) battements/min | -63 (7) mmHg | +18 (11) battements/min | -63 (3) mmHg | 
CC(C)(C)NCC(O)COc1ccc(NC(=O)Cc2ccsc2)cc1Br (stereo not shown) [exemple 41, 1-[2-bromo 4-(3-thiénylacétamido)phénoxy] 3-terbutylamino 2-propanol] | -12 | -49 | -83 | -97 | -3 | 0 | -31 | -55 | +57 (18) battements/min | -44 (14) mmHg | +55 (15) battements/min | -30 (10) mmHg | +68 (16) battements/min | -33 (12) mmHg |  |  |  |  |  |  | 
CC(C)NCC(O)COc1ccc(NC(=O)Cc2ccsc2)cc1Br (stereo not shown) [exemple 42, 1-[2-bromo 4-(3-thiénylacétamido)phénoxy] 3-isopropylamino 2-propanol] | -29 | -51 | -70 | -100 | 0 | 0 | 0 | 0 | +50 (19) battements/min | -43 (8) mmHg | +17 (12) battements/min | -55 (7) mmHg | +33 (12) battements/min | -51 (10) mmHg |  |  |  |  |  |  | 
CC(C)(C)NCC(O)COc1ccc(NC(=O)Cc2cccs2)cc1Cl (stereo not shown) [exemple 43, 1-[2-chloro 4-(2-thiénylacétamido)phénoxy] 3-terbutylamino 2-propanol] | -18 | -49 | -82 | -100 | 0 | 0 | 0 | -22 | +13 (20) battements/min | -29 (9) mmHg | +23 (7) battements/min | -44 (6) mmHg | +30 (12) battements/min | -44 (4) mmHg |  |  |  |  |  |  | 
CC(C)NCC(O)COc1ccc(NC(=O)Cc2cccs2)cc1Cl (stereo not shown) [exemple 44, 1-[2-chloro 4-(2-thiénylacétamido)phénoxy] 3-isopropylamino 2-propanol] | -27 | -46 | -67 | -82 | -11 | -22 | -18 | -15 |  |  |  |  |  |  | +68 (5) battements/min | -37 (11) mmHg | +45 (12) battements/min | -48 (11) mmHg | +52 (11) battements/min | -53 (11) mmHg | 
